The values that follow come from the CombiSolv-Exp solvation set (Vermeire and Green 2021).

The data set is described as follows: solvent given as SMILES.
The mark [1] stands for this setting: in CCCCCCCCC=CCCCCCCCC(=O)OCC(COC(=O)CCCCCCCC=CCCCCCCCC)OC(=O)CCCCCCCC=CCCCCCCCC

In the case of `Cc1[nH]c(=O)n(C(C)(C)C)c(=O)c1Cl`, the “solvation free energy, 298 K” value (in O) was -11.1 kcal/mol.

For the compound `CCC(O)(CC)CC`, the “solvation free energy, 298 K” value (in CCCCCCCC) was -5.42 kcal/mol and the “solvation free energy, 298 K” value (in CCCCCCCCCC) was -5.34 kcal/mol.

For the compound `CC(C)COCC(C)C`, the “solvation free energy, 298 K” value reads like this: (in CCCCCCCCCCCCCCCC) -4.72 kcal/mol; (in CCCCCCCCO) -4.62 kcal/mol.

Take `Clc1cc(-c2ccccc2)c(Cl)c(Cl)c1Cl`: the “solvation free energy, 298 K” value runs as follows: (in CCCCCCCCO) -11.7 kcal/mol; (in O) -3.29 kcal/mol.

In the case of `Oc1ccc(Br)cc1Br`, the “solvation free energy, 298 K” value (in O) is -5.69 kcal/mol.

With `CCOP(=S)(OCC)SCSCC`, the “solvation free energy, 298 K” value (in O) is -4.37 kcal/mol.

`CCCC(=O)OCCC(C)CCC=C(C)C` (configuration not stated): the “solvation free energy, 298 K” value (in O) is -2.73 kcal/mol.

With `CC1CCCCC1O` (configuration not stated), the “solvation free energy, 298 K” value (in O) is -4.79 kcal/mol.

`CC(C)c1ccc2c(c1)CCC1C(C)(C)CCCC21C` (configuration not stated): the “solvation free energy, 298 K” value (in O) was -0.37 kcal/mol.

Consider `CCCCC=O`, for which the “solvation free energy, 298 K” value was -4.24 kcal/mol (in CC(C)CC(C)(C)C); -3.97 kcal/mol (in CCCCCCCC); -4.67 kcal/mol (in CN1CCCC1=O); -4.87 kcal/mol (in CO); -3.77 kcal/mol (in NC=O); -3.01 kcal/mol (in O). Besides, the “solvation free energy, 298 K” value (in O=CN1CCOCC1) was -4.49 kcal/mol and the “solvation free energy, 298 K” value (in [2H]O[2H]) is -2.89 kcal/mol.

Turning to `CCCCCCCOC(=O)c1ccccc1C(=O)OCCCCCCC`, for the setting “in O”, the “solvation free energy, 298 K” value was -6.68 kcal/mol.

Consider `NCCO`, for which the “solvation free energy, 298 K” value (in CCCCCCC) is -2.5 kcal/mol.

Regarding `C=C(C)C1CCC2=CCCC(C)C2(C)C1` (configuration not stated), the “solvation free energy, 298 K” value (in O) is -0.15 kcal/mol.

For `c1ccc2c(c1)CCCC2`, the “solvation free energy, 298 K” value (in CCC(C)=O) was -7.43 kcal/mol; the “solvation free energy, 298 K” value (in CCCCCCC) is -7.03 kcal/mol; the “solvation free energy, 298 K” value (in CCO) is -6.29 kcal/mol; the “solvation free energy, 298 K” value (in O=Cc1ccco1) was -7.02 kcal/mol; the “solvation free energy, 298 K” value (in OCCO) is -4.97 kcal/mol; the “solvation free energy, 298 K” value (in OCCOCCO) was -5.9 kcal/mol. Besides, for the setting “in OCCOCCOCCO”, the “solvation free energy, 298 K” value was -6.07 kcal/mol.

For `COC(OC)OC`, the “solvation free energy, 298 K” value (in O) was -4.42 kcal/mol.

In the case of `c1ccc2c(c1)CCC2`, where the note is “in O”, the “solvation free energy, 298 K” value was -1.42 kcal/mol.

As for `O=C(O)Cc1cccc(Cl)c1`, the “solvation free energy, 298 K” value (in O) is -8.39 kcal/mol.

`CCCCCl`: the “solvation free energy, 298 K” value (in C1CCOC1) is -4.57 kcal/mol; the “solvation free energy, 298 K” value (in C1CCOCC1) was -4.52 kcal/mol; the “solvation free energy, 298 K” value (in C1COCCO1) is -4.4 kcal/mol; the “solvation free energy, 298 K” value (in C=CCCCCCCCCCCCCCC) was -3.77 kcal/mol; the “solvation free energy, 298 K” value (in CC(C)(C)O) is -3.7 kcal/mol; the “solvation free energy, 298 K” value (in CC(C)=O) is -4.26 kcal/mol. Besides, the “solvation free energy, 298 K” value by setting is: (in CC(C)CC(C)(C)C) -3.91 kcal/mol; (in CC(C)CO) -3.72 kcal/mol; (in CC(C)OC(C)C) -4.21 kcal/mol; (in CCC(C)O) -3.72 kcal/mol; (in CCCBr) -4.49 kcal/mol; (in CCCCCC) -4.05 kcal/mol. Also, the “solvation free energy, 298 K” value is -3.96 kcal/mol (in CCCCCCC); -3.93 kcal/mol under setting [1]; -3.68 kcal/mol (in CCCCCCCCCCCCCCCC); -3.67 kcal/mol (in CCCCCCCCCCO); -3.71 kcal/mol (in CCCCCCCCO); -4.37 kcal/mol (in CCCCOC). Moreover, the “solvation free energy, 298 K” value reads like this: (in CCCCOCCCC) -4.11 kcal/mol; (in CCCO) -3.59 kcal/mol; (in CCCOCCC) -4.23 kcal/mol; (in CCI) -4.43 kcal/mol; (in CCOC(C)=O) -4.31 kcal/mol; (in CCOCC) -4.38 kcal/mol. The “solvation free energy, 298 K” value (in COC(C)(C)C) was -4.3 kcal/mol; the “solvation free energy, 298 K” value (in ClC(Cl)(Cl)Cl) was -4.31 kcal/mol; the “solvation free energy, 298 K” value (in ClCCCl) is -4.43 kcal/mol; the “solvation free energy, 298 K” value (in Clc1ccccc1) was -4.35 kcal/mol; the “solvation free energy, 298 K” value (in O) is -0.23 kcal/mol; the “solvation free energy, 298 K” value (in [2H]O[2H]) was -0.73 kcal/mol.

Regarding `O=C(c1cc([N+](=O)[O-])cc([N+](=O)[O-])c1)N(O)c1ccccc1`, the “solvation free energy, 298 K” value (in O) is -15.6 kcal/mol.

On to `CCC#N`, for which the “solvation free energy, 298 K” value is -2.85 kcal/mol (in C=CCCCCCCCCCCCCCC); -4.99 kcal/mol (in CC(=O)N(C)C); -2.83 kcal/mol (in CC(C)CC(C)(C)C); -3.04 kcal/mol (in CCCCCC); -2.86 kcal/mol (in CCCCCCC); -2.84 kcal/mol (in CCCCCCCC). Moreover, the “solvation free energy, 298 K” value (in CCCCCCCCCCCCCCCC) is -2.64 kcal/mol; the “solvation free energy, 298 K” value (in CCCCCCCCO) was -3.65 kcal/mol; the “solvation free energy, 298 K” value (in CCCCO) is -4.01 kcal/mol; the “solvation free energy, 298 K” value (in CCOC(C)=O) was -4.68 kcal/mol; the “solvation free energy, 298 K” value (in CN(C)C=O) was -5.01 kcal/mol; the “solvation free energy, 298 K” value (in CO) was -4.92 kcal/mol. Besides, the “solvation free energy, 298 K” value (in ClC(Cl)(Cl)Cl) is -3.78 kcal/mol; the “solvation free energy, 298 K” value (in ClCCCl) is -4.98 kcal/mol; the “solvation free energy, 298 K” value (in Clc1ccccc1) is -4.45 kcal/mol; the “solvation free energy, 298 K” value (in N#Cc1ccccc1) is -4.82 kcal/mol; the “solvation free energy, 298 K” value (in O) was -3.84 kcal/mol; the “solvation free energy, 298 K” value (in [2H]O[2H]) is -3.79 kcal/mol.

Turning to `C=CCCCCCCCCCC`, the “solvation free energy, 298 K” value is -6.25 kcal/mol (in CN(C)C=O) and 2.58 kcal/mol (in O).

In the case of `O=C(O)CCc1ccccc1`, where the note is “in O”, the “solvation free energy, 298 K” value is -9 kcal/mol.

Regarding `CCOC(C)(C)CC`, the “solvation free energy, 298 K” value (in O) was -1.5 kcal/mol.

Turning to `CNCc1ccc(C)cc1`, for the setting “in O”, the “solvation free energy, 298 K” value is -5.95 kcal/mol.

As to `CCCCCC(=O)OCC`, the “solvation free energy, 298 K” value (in O) is -2.24 kcal/mol.

On to `CCCCCCCCCC`, for which the “solvation free energy, 298 K” value (in CCC(C)(C)OC) was -6.77 kcal/mol; the “solvation free energy, 298 K” value (in CCC(C)=O) was -6.01 kcal/mol; the “solvation free energy, 298 K” value (in CCCCCC) is -6.85 kcal/mol; the “solvation free energy, 298 K” value (in CCCCCCCCCCCCCCCC) is -6.34 kcal/mol; the “solvation free energy, 298 K” value (in CCO) was -5.35 kcal/mol; the “solvation free energy, 298 K” value (in CCOC(=O)c1ccccc1C(=O)OCC) was -5.13 kcal/mol. Besides, the “solvation free energy, 298 K” value by setting is: (in CN1CCCC1=O) -4.92 kcal/mol; (in CN(C)C=O) -4.94 kcal/mol; (in COCCO) -4.75 kcal/mol; (in Cc1ccc(C)cc1) -6.68 kcal/mol; (in N#CCCCCC#N) -3.99 kcal/mol; (in O) 3.18 kcal/mol. Also, the “solvation free energy, 298 K” value is, setting by setting: (in O=CN1CCOCC1) -4.15 kcal/mol; (in OCCO) -2.19 kcal/mol; (in OCCOCCO) -3.2 kcal/mol; (in OCCOCCOCCO) -3.33 kcal/mol; (in OCCOCCOCCOCCO) -3.61 kcal/mol.

Regarding `CCCCCCCNCc1ccc(C)cc1`, the “solvation free energy, 298 K” value (in O) is -5.01 kcal/mol.

Turning to `CCCCCC(=O)c1c(C)[nH]n(-c2ccccc2)c1=O`, the “solvation free energy, 298 K” value (in O) is -9.26 kcal/mol.

Take `Oc1ccccc1Br`: the “solvation free energy, 298 K” value by setting is: (in CC(C)CC(C)(C)C) -6.25 kcal/mol; (in CCCCCC) -6.52 kcal/mol; (in CCCCCCC) -6.49 kcal/mol; (in CCCCCCCC) -6.47 kcal/mol; (in CCCCCCCCCC) -6.44 kcal/mol; (in Cc1ccc(C)cc1) -7.18 kcal/mol. The “solvation free energy, 298 K” value was -7.27 kcal/mol (in Cc1cccc(C)c1), -7.22 kcal/mol (in Cc1ccccc1C) and -5.06 kcal/mol (in O).

In the case of `FC(F)=C(F)C(F)(F)F`, the “solvation free energy, 298 K” value (in CCCCCCCC(=O)OCC(COC(=O)CCCCCCC)OC(=O)CCCCCCC) was -0.41 kcal/mol; the “solvation free energy, 298 K” value (in CCCCCCCCO) was -0.32 kcal/mol; the “solvation free energy, 298 K” value (in COCCO) was 3.88 kcal/mol.

For the compound `BrC(Br)Br`, the “solvation free energy, 298 K” value (in O) was -1.96 kcal/mol.

`COCOC`: the “solvation free energy, 298 K” value reads like this: (in ClC(Cl)(Cl)Cl) -3.66 kcal/mol; (in ClC(Cl)Cl) -3.99 kcal/mol; (in O) -2.95 kcal/mol; (in S=C=S) -3.28 kcal/mol.

As to `CCCCCCCCl`, where the note is “in O”, the “solvation free energy, 298 K” value was determined as 0.29 kcal/mol.

Turning to `Clc1c(Cl)c(Cl)c(Cl)c(Cl)c1Cl`, the “solvation free energy, 298 K” value is -11 kcal/mol (in C1CCOC1); -10.8 kcal/mol (in C1COCCO1); -10 kcal/mol (in CC(C)CC(C)(C)C); -9.59 kcal/mol (in CC(C)CCO); -9.45 kcal/mol (in CCCC(C)O); -9.86 kcal/mol (in CCCCC(CC)CO). Moreover, the “solvation free energy, 298 K” value reads like this: (in CCCCCC) -10.2 kcal/mol; (in CCCCCCC) -10.2 kcal/mol; (in CCCCCCCC) -10.3 kcal/mol; under setting [1], -9.52 kcal/mol; (in CCCCCCCCCC) -10.3 kcal/mol; (in CCCCCCCCO) -9.78 kcal/mol. Moreover, the “solvation free energy, 298 K” value was -10.6 kcal/mol (in CCCCCl); -10.4 kcal/mol (in CCCCOC(C)=O); -10.4 kcal/mol (in CCCCOCCCC); -10.2 kcal/mol (in CCOC(C)=O); -10.2 kcal/mol (in COC(C)=O).

As for `Clc1ccc(Cl)c(-c2ccccc2)c1`, the “solvation free energy, 298 K” value (in O) was -2.46 kcal/mol.

Regarding `CC(C)I`, the “solvation free energy, 298 K” value (in CCO) was -3.98 kcal/mol and the “solvation free energy, 298 K” value (in O) is -0.46 kcal/mol.

With `Cc1ccc2c(C)ccc(C(C)C)c2c1`, the “solvation free energy, 298 K” value (in O) was -2.5 kcal/mol.

For `CC(C(=O)O)c1ccc(N2CC=CC2)c(Cl)c1` (configuration not stated), the “solvation free energy, 298 K” value (in O) is -11.3 kcal/mol.
